The values below come from ChEMBL document CHEMBL1130294, “Subsite requirements for peptide aldehyde inhibitors of human calpain I” (Bioorg Med Chem Lett, 1997).

For this assay, the target named is T1, Calpain-1 catalytic subunit (Homo sapiens, UniProt P07384).
T1 sequence (P07384 whole entry): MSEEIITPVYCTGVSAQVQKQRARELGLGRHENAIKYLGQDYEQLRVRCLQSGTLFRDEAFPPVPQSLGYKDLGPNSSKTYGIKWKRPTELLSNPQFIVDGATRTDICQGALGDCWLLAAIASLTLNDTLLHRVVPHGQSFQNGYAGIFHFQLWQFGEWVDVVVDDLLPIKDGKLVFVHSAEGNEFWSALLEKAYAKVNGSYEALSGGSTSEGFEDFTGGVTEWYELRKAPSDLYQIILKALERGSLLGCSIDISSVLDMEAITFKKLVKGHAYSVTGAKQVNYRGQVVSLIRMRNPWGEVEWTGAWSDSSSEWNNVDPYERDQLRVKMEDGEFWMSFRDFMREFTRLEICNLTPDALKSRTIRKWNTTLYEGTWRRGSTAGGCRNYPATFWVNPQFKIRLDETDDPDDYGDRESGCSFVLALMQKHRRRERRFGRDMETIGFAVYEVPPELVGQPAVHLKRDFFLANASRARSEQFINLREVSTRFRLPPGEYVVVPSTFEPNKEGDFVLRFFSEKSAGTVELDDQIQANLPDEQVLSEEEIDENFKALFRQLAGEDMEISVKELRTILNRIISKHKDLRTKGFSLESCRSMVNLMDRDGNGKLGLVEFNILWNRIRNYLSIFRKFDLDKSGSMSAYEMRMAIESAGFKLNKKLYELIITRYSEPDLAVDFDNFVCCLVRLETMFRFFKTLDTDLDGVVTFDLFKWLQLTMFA
The assay is described as follows: Inhibitory activity evaluated against recombinant human calpain 1.

Each structure is given as a SMILES string. Non-standard residues stand in square brackets, D forms with d. Residues, ends and D or L forms follow the SMILES beside them. *: point of attachment. tBuAla = CC(C)(C)C[C@H](N)C(=O)O; Tic = O=C(O)[C@@H]1Cc2ccccc2CN1; Cha = N[C@@H](CC1CCCCC1)C(=O)O; Tle = CC(C)(C)[C@H](N)C(=O)O; Nle = CCCC[C@H](N)C(=O)O; Abu = CC[C@H](N)C(=O)O; Cbz = O=C(OCc1ccccc1)*; Boc = CC(C)(C)OC(=O)*; Bn = c1ccc(C*)cc1; OtBu = CC(C)(C)O*; tBu = CC(C)(C)*

With `CC(C)C[C@@H](C=O)NC(=O)[C@H](CC(C)C)NC(=O)OCc1ccccc1`, the IC50 is 8 nM.
For the compound `CC(C)C[C@@H](C=O)NC(=O)[C@H](CC1CCCCC1)NC(=O)OCc1ccccc1` (Cbz-[Cha]-Leu-aldehyde), the IC50 was determined as 580 nM.
For `CC(C)C[C@@H](C=O)NC(=O)[C@H](CC(C)C)NC(=O)[C@H](CC(C)C)NC(=O)[C@H](Cc1c[nH]cn1)NC(=O)OCc1ccccc1` (Cbz-HLLL-aldehyde), the IC50 was determined as 17 nM.
Under `CC(C)C[C@H](NC(=O)OCc1ccccc1)C(=O)N[C@H](C=O)Cc1ccc(OCc2ccccc2)cc1` (Cbz-Leu-Tyr(Bn)-aldehyde) stands 7 nM; under `CC(=O)N[C@@H](CC(C)C)C(=O)N[C@@H](CC(C)C)C(=O)N[C@@H](C=O)CC(C)C`, 62 nM; under `CC(C)C[C@@H](C=O)NC(=O)[C@@H](NC(=O)OCc1ccccc1)[C@H](C)O`, 190 nM.
With `CSCC[C@@H](C=O)NC(=O)[C@H](CC(C)C)NC(=O)OCc1ccccc1` (Cbz-Leu-Met-aldehyde) the figure was 33 nM; with `CC(=O)N[C@@H](C)C(=O)N[C@@H](CC(C)C)C(=O)N[C@H](C=O)CC(C)C` (Ac-Ala-Leu-Leu-aldehyde), 18 nM; with `CC(C)C[C@@H](C=O)NC(=O)[C@H](CC(C)(C)C)NC(=O)OCc1ccccc1` (Cbz-[tBuAla]-Leu-aldehyde), 140 nM.
With `CC(C)C[C@H](NC(=O)OCc1ccccc1)C(=O)N(C)[C@H](C=O)CC(C)C` the figure was over 1000 nM.
Regarding `CC(C)C[C@@H](C=O)NC(=O)[C@H](CC(C)C)NC(=O)[C@H](CC(C)C)NC(=O)c1ccc2ccccc2c1`, the IC50 is 10 nM.
As for `CC(C)C[C@@H](C=O)NC(=O)[C@H](CCC(=O)O)NC(=O)[C@H](CC(C)C)NC(=O)OCc1ccccc1` (Cbz-Leu-Glu-Leu-aldehyde), the IC50 was found to be 1200 nM.
Take `CC(C)C[C@@H](C=O)NC(=O)[C@H](Cc1ccccc1)NC(=O)[C@H](CC(C)C)NC(=O)OCc1ccccc1` (Cbz-Leu-Phe-Leu-aldehyde): the IC50 came out at 68 nM.
On to `CC(C)C[C@H](NC(=O)OCc1ccccc1)C(=O)NCCC=O`, for which the IC50 is over 10000 nM.
With `CC(C)C[C@@H](C=O)NC(=O)[C@H](Cc1c[nH]c2ccccc12)NC(=O)OCc1ccccc1` (Cbz-Trp-Leu-aldehyde) the figure was 120 nM.
As to `CC(C)C[C@@H](C=O)NC(=O)[C@@H](NC(=O)OCc1ccccc1)C(C)(C)C` (Cbz-[Tle]-Leu-aldehyde), the IC50 worked out at 4 nM.
`CC(C)C[C@@H](C=O)NC(=O)[C@H](CC(C)C)NC(=O)[C@H](C)NC(=O)OCc1ccccc1` (Cbz-Ala-Leu-Leu-aldehyde): the IC50 was found to be 5 nM.
Consider `CC(=O)N[C@@H](CC(C)C)C(=O)N[C@@H](CC(C)C)C(=O)NCC=O` (Ac-Leu-Leu-Gly-aldehyde), for which the IC50 was about 1000 nM.
On to `CC(C)C[C@H](NC(=O)OCc1ccccc1)C(=O)N[C@H](C=O)Cc1cnc[nH]1` (Cbz-Leu-His-aldehyde), for which the IC50 turned out to be 15 nM.
Consider `CC(=O)N[C@@H](COC(C)(C)C)C(=O)N[C@@H](CC(C)C)C(=O)N[C@H](C=O)CC(C)C` (Ac-Ser(tBu)-Leu-Leu-aldehyde), for which the IC50 was determined as 37 nM.
Under `CC(C)C[C@H](NC(=O)OCc1ccccc1)C(=O)N[C@H](C=O)Cc1ccccc1` (Cbz-Leu-Phe-aldehyde) stands 10 nM.
Consider `CC(=O)N[C@@H](CC(C)C)C(=O)N[C@@H](CC(C)C)C(=O)N[C@H](C=O)CC(C)C`, for which the IC50 came out at 15 nM.
In the case of `CC(=O)N[C@@H](CC(C)C)C(=O)N[C@@H](CC(C)C)C(=O)N[C@H](C=O)Cc1c[nH]c2ccccc12` (Ac-Leu-Leu-Trp-aldehyde), the IC50 is 150 nM.
With `CC(C)C[C@@H](C=O)NC(=O)CNC(=O)[C@H](CC(C)C)NC(=O)OCc1ccccc1` (Cbz-Leu-Gly-Leu-aldehyde), the IC50 is about 10000 nM.
Under `CC(C)C[C@@H](C=O)NC(=O)[C@H](Cc1c[nH]c2ccccc12)NC(=O)[C@H](CC(C)C)NC(=O)OCc1ccccc1` (Cbz-Leu-Trp-Leu-aldehyde) stands 45 nM.
For `CC(C)C[C@@H](C=O)NC(=O)CCNC(=O)OCc1ccccc1`, the IC50 was over 10000 nM.
Under `CC(C)C[C@@H](C=O)NC(=O)[C@H](Cc1ccc(O)cc1)NC(=O)OCc1ccccc1` (Cbz-Tyr-Leu-aldehyde) stands over 1000 nM.
In the case of `CC(C)C[C@H](NC(=O)OCc1ccccc1)C(=O)N[C@H](C=O)C(C)(C)C` (Cbz-Leu-[Tle]-aldehyde), the IC50 was 35 nM.
Under `CC(=O)N[C@@H](CC(C)C)C(=O)N[C@@H](CC(C)C)C(=O)N[C@H](C=O)CCCCNC(=O)OC(C)(C)C` (Ac-Leu-Leu-Lys(Boc)-aldehyde) stands 33 nM; under `CC(C)C[C@@H](C=O)NC(=O)[C@H](Cc1ccccc1)NC(=O)[C@@H](NC(=O)OCc1ccccc1)C(C)C` (Cbz-Val-Phe-Leu-aldehyde), 31 nM.
For the compound `CCCC[C@H](NC(=O)OCc1ccccc1)C(=O)N[C@H](C=O)CC(C)C`, the IC50 was found to be 33 nM.
With `CC(C)C[C@@H](C=O)NC(=O)[C@H](CCC(N)=O)NC(=O)OCc1ccccc1` (Cbz-Gln-Leu-aldehyde) the figure was 370 nM; with `CSCCC(C=O)NC(=O)C(CC(C)C)NC(=O)[C@H](CC(C)C)NC(C)=O` (single isomer, unassigned), 23 nM.
Under `CC(C)C[C@@H](C=O)NC(=O)[C@@H](NC(=O)OCc1ccccc1)C(C)C` (Cbz-Val-Leu-aldehyde) stands 29 nM; under `CC(C)C[C@H](C=O)NC(=O)OCc1ccccc1`, 10000 nM.
On to `CC(C)C[C@@H](C=O)NC(=O)[C@H](CC(C)C)NC(=O)[C@H](CC(C)C)NC(=O)[C@H](C)NC(=O)OCc1ccccc1` (Cbz-ALLL-aldehyde), for which the IC50 stood at 6 nM.
Consider `CC(C)C[C@@H](C=O)NC(=O)[C@H](CC(C)C)N(C)C(=O)OCc1ccccc1`, for which the IC50 is over 10000 nM.
Turning to `CC(C)C[C@@H](C=O)NC(=O)[C@H](CCCCN)NC(=O)[C@H](CC(C)C)NC(=O)OCc1ccccc1` (Cbz-Leu-Lys-Leu-aldehyde), the IC50 is about 10000 nM.
Under `CC(C)C[C@@H](C=O)NC(=O)[C@H](CC(C)C)NC(=O)[C@H](CCC(=O)O)NC(=O)OCc1ccccc1` (Cbz-Glu-Leu-Leu-aldehyde) stands 40 nM.
On to `CC(=O)N[C@@H](CC(C)C)C(=O)N[C@@H](CC(C)C)C(=O)N[C@H](C=O)Cc1ccccc1` (Ac-Leu-Leu-Phe-aldehyde), for which the IC50 is 32 nM.
With `CC(C)C[C@@H](C=O)NC(=O)[C@H](CC(C)C)NC(=O)[C@H](CC(C)C)NC(=O)OCc1ccccc1` (Cbz-Leu-Leu-Leu-aldehyde) the figure was 19 nM.
With `CC(C)C[C@@H](C=O)NC(=O)[C@H](CC(C)C)NC(=O)/C=C\C(=O)O` the figure was about 10000 nM; with `CC(C)C[C@@H](C=O)NC(=O)[C@H](CC(C)C)NC(=O)[C@H](COC(C)(C)C)NC(=O)OCc1ccccc1` (Cbz-Ser(tBu)-Leu-Leu-aldehyde), 12 nM.
Under `CC(C)C[C@@H](C=O)NC(=O)[C@H](C)NC(=O)[C@H](CC(C)C)NC(=O)OCc1ccccc1` (Cbz-Leu-Ala-Leu-aldehyde) stands 90 nM.
Regarding `CC(C)C[C@@H](C=O)NC(=O)[C@H](CC(C)C)NC(=O)[C@H](CCCCN)NC(=O)OCc1ccccc1` (Cbz-Lys-Leu-Leu-aldehyde), the IC50 was determined as 20 nM.
Regarding `CCCC[C@@H](C=O)NC(=O)[C@H](CC(C)C)NC(=O)[C@H](CC(C)C)NC(C)=O` (Ac-Leu-Leu-[Nle]-aldehyde), the IC50 is 12 nM.
On to `CCCC[C@@H](C=O)NC(=O)[C@H](CC(C)C)NC(=O)OCc1ccccc1` [CALPEPTIN], for which the IC50 turned out to be 5 nM.
Under `CC(C)C[C@@H](C=O)NC(=O)[C@H](CC(C)C)NC(=O)[C@@H]1Cc2ccccc2CN1C(=O)OCc1ccccc1` (Cbz-[Tic]-Leu-Leu-aldehyde) stands 15 nM; under `CC(C)C[C@@H](C=O)NC(=O)[C@H](CC(C)C)NC(=O)[C@H](CCC(=O)OC(C)(C)C)NC(=O)OCc1ccccc1` (Cbz-Glu(OtBu)-Leu-Leu-aldehyde), 25 nM; under `CC(C)C[C@H](NC(=O)OCc1ccccc1)C(=O)N[C@@H](C)C=O` (Cbz-Leu-Ala-aldehyde), 120 nM.
In the case of `CC(=O)N[C@@H](CC(C)C)C(=O)N[C@@H](CC(C)C)C(=O)N[C@H](C=O)CCC(=O)OC(C)(C)C` (Ac-Leu-Leu-Glu(OtBu)-aldehyde), the IC50 was 1100 nM.
With `CC(C)C[C@@H](C=O)NC(=O)[C@H](CO)NC(=O)OCc1ccccc1` (Cbz-Ser-Leu-aldehyde) the figure was 530 nM; with `CC(=O)N[C@H](C(=O)N[C@@H](Cc1ccccc1)C(=O)N[C@H](C=O)CC(C)C)C(C)C` (Ac-Val-Phe-Leu-aldehyde), 110 nM; with `CC(C)C[C@H](NC(=O)OCc1ccccc1)C(=O)NCC=O` (Cbz-Leu-Gly-aldehyde), 300 nM.
For `CC[C@@H](C=O)NC(=O)[C@H](CC(C)C)NC(=O)OCc1ccccc1` (Cbz-Leu-[Abu]-aldehyde), the IC50 stood at 10 nM.
Take `CC(C)C[C@@H](C=O)NC(=O)[C@H](CC(C)C)NC(=O)[C@H](Cc1ccccc1)NC(=O)OCc1ccccc1` (Cbz-Phe-Leu-Leu-aldehyde): the IC50 came to 11 nM.
For the compound `CC(C)C[C@@H](C=O)NC(=O)[C@H](CC(C)C)NC(=O)OCc1ccc([N+](=O)[O-])cc1`, the half-inhibitory concentration (IC50) worked out at 8 nM.

A word on the IC50: it is the concentration at which inhibition is half-maximal.
